This note sets out measurements from patent US20080125432A1 (Devgen NV, priority 2004, published 2008).

Tested on in one data set: not given
Assay: not given
Conditions: not given
Compound `Cc1nc(Sc2ccccc2)sc1C(=O)N[C@H]1CCC[C@@H]1OCc1ccccc1` [Compound 81, 4-methyl-2-phenylsulfanyl-thiazole-5-carboxylic acid ((1S,2S)-2-benzyloxycyclopent-1-yl) amide] came in with a melting point of 129.5 to 132.4 °C.

In turn, `Cc1nc(NC(=O)c2ccc(C(C)(C)C)cc2)sc1C(=O)N[C@H]1CCC[C@@H]1OCc1ccccc1` [Compound 180, 2-(4-tert-butyl-benzoylamino)-4-methyl-thiazole-5-carboxylic acid ((1S,2S)-2-benzyloxycyclopent-1-yl) amide] came in with a melting point of 88.7 to 90 °C.

On to `Cc1nc(Nc2ccc3c(c2)OCCO3)sc1C(=O)N[C@H]1CCC[C@@H]1OCc1ccccc1` [Compound 95], for which the melting point is 178 to 180.1 °C.

The compound `COc1ccccc1Nc1nc(C)c(C(=O)NCc2c(C)cccc2Cl)s1` [Compound 98, 2-(2-methoxy-phenylamino)-4-methyl-thiazole-5-carboxylic acid 2-chloro-6-methyl-benzylamide] had a melting point of 105.4 to 107.6 °C.

As for `COc1ccccc1Nc1nccc(C(=O)N[C@H]2CCC[C@@H]2OCc2ccccc2)n1` [Compound 76, 2-(2-methoxy-phenylamino)-pyrimidine-4-carboxylic acid ((1S,2S)-2-benzyloxycyclopent-1-yl) amide], the melting point was in the range of 97.3 to 99.8 °C.

Compound `COc1ccccc1Nc1nc(C)c(C(=O)NCc2ccc(C(C)(C)C)cc2)s1` [Compound 106, 2-(2-methoxy-phenylamino)-4-methyl-thiazole-5-carboxylic acid 4-tert-butyl-benzylamide] came in with a melting point of 168.5 to 169.4 °C.

For `COc1ccccc1Nc1nc(C)c(C(=O)NCc2ccc(Br)cc2)s1` [Compound 108, 2-(2-methoxy-phenylamino)-4-methyl-thiazole-5-carboxylic acid 4-bromo-benzylamide], the melting point is 150.7 to 154.2 °C.

Compound `COc1ccccc1Nc1nc(C)c(C(=O)NCc2ccc3c(c2)CCO3)s1` [Compound 104, 2-(2-methoxy-phenylamino)-4-methyl-thiazole-5-carboxylic acid (2,3-dihydro-benzofuran-5-ylmethyl)-amide] displayed a melting point of 136.5 to 140.1 °C.

Take `COc1ccccc1Nc1nc(C)c(C(=O)NCc2ccc(N(C)C)cc2)s1` [Compound 105, 2-(2-methoxy-phenylamino)-4-methyl-thiazole-5-carboxylic acid 4-dimethylamino-benzylamide]: the melting point lay in the range of 183.3 to 185.2 °C.

Consider `Cc1nc(Nc2ccc3occc3c2)sc1C(=O)N[C@H]1CCC[C@@H]1OCc1ccccc1` [Compound 126, 2-(benzofuran-5-ylamino)-4-methyl-thiazole-5-carboxylic acid ((1S,2S)-2-benzyloxycyclopent-1-yl) amide], for which the melting point fell in the range of 164.4 to 169.3 °C.

On to `COc1ccccc1Nc1nc(C)c(C(=O)NCc2ccccc2SC)s1` [Compound 97], for which the melting point was found to be 66.5 °C.

The compound `COc1ccccc1Nc1ccc(C(=O)N[C@H]2CCC[C@@H]2OCc2ccccc2)s1` [Compound 75, 2-(2-methoxy-phenylamino)-thiophene-5-carboxylic acid ((1S,2S)-2-benzyloxycyclopent-1-yl) amide] yielded a melting point of 69.7 to 71.6 °C.

The compound `Cc1nc(Nc2cccc3ccccc23)sc1C(=O)N[C@H]1CCC[C@@H]1OCc1ccccc1` [Compound 93] yielded a melting point of 102.4 to 108.2 °C.

Another data set relates to human Kv4.3/KChIP2.2 potassium channel. Briefly: Whole cell patch clamp, CHO-K1 cells stably expressing human Kv4.3/KChIP2.2. The data set is classed as cell-based. The following applies: selectivity for Kv4.3 vs hERG (Patch Clamp test); >5 considered very selective. On the technique in general: In patch-clamp work, channel activity is measured electrically.
Regarding `Cc1nc(Nc2ccc(Cl)cc2)sc1C(=O)N[C@H](C)c1ccc2ccccc2c1` [Compound 52, 2-(4-chloro-phenylamino)-4-methyl-thiazole-5-carboxylic acid (R)-1-(2-naphtalen-2-yl-ethyl)-amide], the “Ratio hERG/Kv4.3” value is given as 65.4.

For `Cc1nc(Nc2ccc(Br)cc2)sc1C(=O)N[C@@H](C)c1ccc2ccccc2c1` [Compound 18, 2-(4-bromo-phenylamino)-4-methyl-thiazole-5-carboxylic acid (S)-1-(naphthalen-2-yl)ethyl amide], the “Ratio hERG/Kv4.3” value stood at 6.9.

On to `COc1cccc([C@@H](C)NC(=O)c2sc(Nc3cc(Cl)ccc3OC)nc2C)c1` [Compound 34], for which the “Ratio hERG/Kv4.3” value came out at 5.4.

Consider `COc1ccc(OC)c(Nc2nc(C)c(C(=O)N[C@@H]3CCC[C@H]3OCc3ccccc3)s2)c1` [Compound 33, 2-(2,5-dimethoxyphenylamino)-4-methylthiazole-5-carboxylic acid (1R,2R)-2-(benzyloxycyclopent-1-yl) amide], for which the “Ratio hERG/Kv4.3” value amounted to 10.0.

Take `Cc1nc(Nc2ccc(Cl)cc2)sc1C(=O)N[C@@H]1CCC[C@H]1OCc1ccccc1` [Compound 30, 2-(4-chloro-phenylamino)-4-methyl-thiazole-5-carboxylic acid (1R,2R)-2-(benzyloxycyclopent-1-yl) amide]: the “Ratio hERG/Kv4.3” value is 8.7.

Consider `COc1ccccc1Nc1nc(C)c(C(=O)N[C@@H]2CCC[C@H]2OCc2ccccc2)s1` [Compound 31, 2-(2-methoxy-phenylamino)-4-methyl-thiazole-5-carboxylic acid (1R,2R)-2-(benzyloxycyclopent-1-yl) amide], for which the “Ratio hERG/Kv4.3” value was determined as 8.7.

Take `COc1ccc(CNC(=O)c2sc(Nc3ccc(Br)cc3)nc2C)cc1` [Compound 60, 2-(4-bromo-phenylamino)-4-methyl-thiazole-5-carboxylic acid 4-methoxy-benzylamide]: the “Ratio hERG/Kv4.3” value was 7.7.

On to `Cc1nc(Nc2ccc(Br)cc2)sc1C(=O)NCc1ccc(F)c(C(F)(F)F)c1` [Compound 63, 2-(4-bromo-phenylamino)-4-methyl-thiazole-5-carboxylic acid 4-fluoro-3-trifluoromethyl-benzylamide], for which the “Ratio hERG/Kv4.3” value is recorded as 33.1.

With `Cc1nc(Nc2ccc(Br)cc2)sc1C(=O)N[C@H](C)c1ccc2ccccc2c1` [Compound 19, 2-(4-bromo-phenylamino)-4-methyl-thiazole-5-carboxylic acid (R)-1-(naphthalen-2-yl)ethyl amide], the “Ratio hERG/Kv4.3” value is on record as 33.1.

Take `Cc1nc(Nc2ccc(Br)cc2)sc1C(=O)NCc1ccc(N(C)C)cc1` [Compound 64, 2-(4-bromo-phenylamino)-4-methyl-thiazole-5-carboxylic acid 4-dimethylamino-benzylamide]: the “Ratio hERG/Kv4.3” value is more than 120.

For the compound `Cc1nc(Nc2ccc(Br)cc2)sc1C(=O)NCc1cccc2ccccc12` [Compound 56, 2-(4-bromo-phenylamino)-4-methyl-thiazole-5-carboxylic acid (naphtalen-1-yl-methyl)-amide], the “Ratio hERG/Kv4.3” value amounted to 6.6.

`COc1cc(CNC(=O)c2sc(Nc3ccc(Br)cc3)nc2C)cc(OC)c1` [Compound 65, 2-(4-bromo-phenylamino)-4-methyl-thiazole-5-carboxylic acid 3,5-dimethoxy-benzylamide]: the “Ratio hERG/Kv4.3” value amounted to 9.1.

For `Cc1nc(Nc2ccc(Cl)cc2)sc1C(=O)N[C@@H](C)c1ccc2ccccc2c1` [Compound 54, 2-(4-chloro-phenylamino)-4-methyl-thiazole-5-carboxylic acid (S)-1-(2-naphtalen-2-yl-ethyl)-amide], the “Ratio hERG/Kv4.3” value is reported as 6.6.

As to `COc1ccccc1Nc1nc(C)c(C(=O)N[C@@H](C)c2ccc3ccccc3c2)s1` [Compound 55, 2-(2-methoxy-phenylamino)-4-methyl-thiazole-5-carboxylic acid (S)-1-(2-naphtalen-2-yl-ethyl)-amide], the “Ratio hERG/Kv4.3” value is 5.0.

Consider “2-(4-bromo-phenylamino)-4-methyl-thiazole-5-carboxylic acid 1,2,3,4-tetrahydroisoquinolinamide [Compound 66]”, for which the “Ratio hERG/Kv4.3” value is 29.1.

In the case of `COc1ccccc1Nc1nc(C)c(C(=O)N[C@H]2CCC[C@@H]2OCc2ccccc2)s1` [Compound 68, 2-(2-methoxy-phenylamino)-4-methyl-thiazole-5-carboxylic acid (1S,2S)-2-(benzyloxycyclopent-1-yl) amide], the “Ratio hERG/Kv4.3” value was determined as 14.7.

The subject of another data set is C. elegans wild-type strain N2. Briefly: Same C. elegans pumping assay format using wild-type strain N2. Format: in vivo. The settings on record: Caenorhabditis elegans, read-out: EC50 (μM) Wild type worm N2. The source says: The screening of the compounds according to the present invention has been performed in the C. elegans based high-throughput screen for Kv4.3 modulators described above. The method for testing the activity on human Kv4.3 of the compounds according to the invention with C. elegans strains expressing human Kv4.3 for their activity is the same as the method described in WO 03/097682. The method for testing the compounds on wild-type C. elegans strains not expressing human Kv4.3 is the same as the method described in WO 00/63427. Briefly, UG1755 animals have been grown in large numbers and staged young adults (no or only few eggs inside the uterus) have been harvested on the day of screening. Approximately 125 animals in 80 μl buffer have been dispensed per well of a “U shaped 96-well compound plate The compound plate contained already compound material at a final concentration of 30 μM in 0.3% DMSO. After one hour incubation 10 μl of the fluorescent label Calcein AM (CAM) have been added to achieve a final concentration of 5 μM CAM and 0.8% DMSO. After another four hours of incubation at 20° C., the drinking of C. elegans animals (or the “reaction 8 measured by the uptake of CAM) has been stopped by adding 10 μl of a 60 μM ivermectin solution. The fluorescence intensity (counts per second) has been measured 40 minutes after adding ivermectin with the Wallac plate reader at a wavelength of 535 nm (after excitation at 485 nm).
These compounds have been also tested in the same assay format using a C. elegans wild-type strain N2 and the corresponding EC50 has been calculated. The ratio of the EC50s obtained for a compound on the two strains (transgenic expressing human Kv4.3 and wild-type) gives an indication on whether said compound is acting on human Kv4.3. […]
As for `Cc1nc(Nc2ccc(Br)cc2)sc1C(=O)N[C@@H](C)c1ccc2ccccc2c1` [Compound 18, 2-(4-bromo-phenylamino)-4-methyl-thiazole-5-carboxylic acid (S)-1-(naphthalen-2-yl)ethyl amide], the EC50 amounted to 33 µM.

As to `Cc1nc(Nc2ccc(Br)cc2)sc1C(=O)N[C@H](C)c1ccc2ccccc2c1` [Compound 19, 2-(4-bromo-phenylamino)-4-methyl-thiazole-5-carboxylic acid (R)-1-(naphthalen-2-yl)ethyl amide], the EC50 amounted to 33 µM.

For `Cc1nc(Nc2ccc(F)cc2)sc1C(=O)N[C@H](C)c1ccc2ccccc2c1` [Compound 16, 2-(4-fluoro-phenylamino)-4-methyl-thiazole-5-carboxylic acid (R)-1-(naphthalen-2-yl)ethyl amide], the EC50 is more than 60 µM.

Still in this data set, the particulars now being: read-out: EC50 (μM) Wild type worm N2.
As for `Cc1nc(Nc2ccc(Cl)cc2)sc1C(=O)N[C@@H]1CCC[C@H]1OCc1ccccc1` [Compound 30, 2-(4-chloro-phenylamino)-4-methyl-thiazole-5-carboxylic acid (1R,2R)-2-(benzyloxycyclopent-1-yl) amide], the EC50 is more than 60 µM.

What is called melting point is the temperature of the solid-liquid transition. In general, EC50 refers to the concentration at which the effect is half-maximal.
